Experimental data as given in patent US6620828B2, “Thiazole compounds and pharmaceutical compositions for inhibiting protein kinases and methods for their use” (Agouron Pharmaceuticals, Inc., priority 1999, dated 2003).
Like-named read-outs stand apart in the source and are kept apart here.

Tested on: human umbilical vein endothelial cells (HUVEC)
Assay: HUVEC proliferation assay
Assay type: cell-based
Conditions: Homo sapiens, HUVEC, crude combinatorial urea library; for inhibition at 0.01 µM: 10 nM, read-out: Inhibition of HUVEC Proliferation % inhibition @ 10 nM; for inhibition at 0.05 µM: 50 nM
Method: HUVEC Proliferation Assay
This assay determines the ability of a test compound to inhibit the growth factor-stimulated proliferation of human umbilical vein endothelial cells (“HUVEC”). HUVEC cells (passage 3-4, Clonetics, Corp.) were thawed into EGM2 culture medium (Clonetics Corp) in T75 flasks. Fresh EGM2 medium was added to the flasks 24 hours later. Four or five days later, cells were exposed to another culture medium (F12K medium supplemented with 10% fetal bovine serum (FBS), 60 μg/ml endothelial cell growth supplement (ECGS), and 0.1 mg/ml heparin). Exponentially-growing HUVEC cells were used in experiments thereafter. Ten to twelve thousand HUVEC cells were plated in 96-well dishes in 100 μl of rich, culture medium (described above). The cells were allowed to attach for 24 hours in this medium. The medium was then removed by aspiration and 105 μl of starvation media (F12K+1% FBS) was added to each well. After 24 hours, 15 μl of test agent dissolved in 1% DMSO in starvation medium or this vehicle alone was added into each treatment well; the final DMSO concentration was 0.1%. One hour later, 30 μl of VEGF (30 ng/ml) in starvation media was added to all wells except those containing untreated controls; the final VEGF concentration was 6 ng/ml. Cellular proliferation was quantified 72 hours later by MTT dye reduction, at which time cells were exposed for 4 hours MTT (Promega Corp.). Dye reduction was stopped by addition of a stop solution (Promega Corp.) and absorbance at 595 λ was determined on a 96-well spectrophotometer plate reader.
IC50 values were calculated by curve-fitting the response of A^595 to various concentrations of the test agent; typically, seven concentrations separated by 0.5 log were employed, with triplicate wells at each concentration. For screening compound library plates, one or two concentrations (one well per concentration) were employed, and the % inhibition was calculated by the following formula:
% inhibition=(control−test) divided by (control−starvation) […]
control=A^595 when VEGF is present without test agent test=A^595 when VEGF is present with test agent starvation=A^595 when VEGF and test agent are both absent.

[1] = read-out: Inhibition of HUVEC Proliferation % inhibition @ 50 nM
[2] = Inhibition of HUVEC Proliferation, read-out: % inhibition @ 50 nM

| SMILES | inhibition at 0.01 µM | inhibition at 0.05 µM [1] | inhibition at 0.05 µM [2] |
| --- | --- | --- | --- |
| COc1cccc(C(=O)Nc2cccc(-c3csc(-c4sc(NC(=O)NCCNc5ccccc5)nc4N)n3)c2)c1 | 28% | 62% |  |
| COc1cccc(C(=O)Nc2cccc(-c3csc(-c4sc(NC(=O)NCC(C)O)nc4N)n3)c2)c1 (stereo not drawn) | 7% | 126% |  |
| COc1cccc(C(=O)Nc2cccc(-c3csc(-c4sc(NC(=O)NC5CCN(Cc6ccccc6)CC5)nc4N)n3)c2)c1 | -22% | 23% |  |
| COc1cccc(C(=O)Nc2cccc(-c3csc(-c4sc(NC(=O)NCC(C)(C)CN(C)C)nc4N)n3)c2)c1 | -25% | 36% |  |
| COc1cccc(C(=O)Nc2cccc(-c3csc(-c4sc(NC(=O)N[C@H]5CC[C@H](O)CC5)nc4N)n3)c2)c1 | -6% | 21% |  |
| COc1cccc(C(=O)Nc2cccc(-c3csc(-c4sc(NC(=O)NCCC(=O)O)nc4N)n3)c2)c1 | -1% | 8% |  |
| COCCNC(=O)Nc1nc(N)c(-c2nc(-c3cccc(NC(=O)c4cccc(OC)c4)c3)cs2)s1 | 35% | 32% |  |
| COc1cccc(C(=O)Nc2cccc(-c3csc(-c4sc(NC(=O)NCC(F)(F)F)nc4N)n3)c2)c1 | 20% | 15% |  |
| COc1cccc(C(=O)Nc2cccc(-c3csc(-c4sc(NC(=O)NCCCn5ccnc5)nc4N)n3)c2)c1 | 9% | 39% |  |
| COc1cccc(C(=O)Nc2cccc(-c3csc(-c4sc(NC(=O)NCCc5ccc(S(N)(=O)=O)cc5)nc4N)n3)c2)c1 | 34% | 49% |  |
| CCCCN(CC)CCNC(=O)Nc1nc(N)c(-c2nc(-c3cccc(NC(=O)c4cccc(OC)c4)c3)cs2)s1 | 1% | 10% |  |
| COc1cccc(C(=O)Nc2cccc(-c3csc(-c4sc(NC(=O)NCc5ccc(N(C)C)cc5)nc4N)n3)c2)c1 | 19% | 67% |  |
| COc1cccc(C(=O)Nc2cccc(-c3csc(-c4sc(NC(=O)NCP(=O)(O)O)nc4N)n3)c2)c1 | -8% | 38% |  |
| COc1cccc(C(=O)Nc2cccc(-c3csc(-c4sc(NC(=O)NC(CO)CO)nc4N)n3)c2)c1 | -17% | 52% |  |
| COc1cccc(C(=O)Nc2cccc(-c3csc(-c4sc(NC(=O)NCc5ccc(N)cc5)nc4N)n3)c2)c1 | 4% | 35% |  |
| COc1cccc(C(=O)Nc2cccc(-c3csc(-c4sc(NC(=O)N[C@@H](CO)C(N)=O)nc4N)n3)c2)c1 | 5% | 24% |  |
| COc1cccc(C(=O)Nc2cccc(-c3csc(-c4sc(NC(=O)NCCNC(C)=O)nc4N)n3)c2)c1 | 20% | 77% |  |
| COc1cccc(C(=O)Nc2cccc(-c3csc(-c4sc(NC(=O)N[C@H](CO)Cc5c[nH]cn5)nc4N)n3)c2)c1 | 16% | 19% |  |
| CCC(CO)NC(=O)Nc1nc(N)c(-c2nc(-c3cccc(NC(=O)c4cccc(OC)c4)c3)cs2)s1 (stereo not drawn) | 13% | 62% |  |

| SMILES | inhibition at 0.01 µM | inhibition at 0.05 µM [1] | inhibition at 0.05 µM [2] |
| --- | --- | --- | --- |
| COc1cccc(C(=O)Nc2cccc(-c3csc(-c4sc(NC(=O)NCCCC(=O)O)nc4N)n3)c2)c1 | 23% | 24% |  |
| COc1cccc(C(=O)Nc2cccc(-c3csc(-c4sc(NC(=O)NCCOCCO)nc4N)n3)c2)c1 | 13% | 92% |  |
| COc1cccc(C(=O)Nc2cccc(-c3csc(-c4sc(NC(=O)NCCN5CCOCC5)nc4N)n3)c2)c1 | 1% | 121% |  |
| COc1cccc(C(=O)Nc2cccc(-c3csc(-c4sc(NC(=O)NCCN5CCNCC5)nc4N)n3)c2)c1 | 4% | 39% |  |
| COc1cccc(C(=O)Nc2cccc(-c3csc(-c4sc(NC(=O)NCCc5ccccn5)nc4N)n3)c2)c1 | -2% | 128% |  |
| COc1cccc(C(=O)Nc2cccc(-c3csc(-c4sc(NC(=O)NCCN5CCCC5)nc4N)n3)c2)c1 | 7% | 17% |  |
| COCC(C)NC(=O)Nc1nc(N)c(-c2nc(-c3cccc(NC(=O)c4cccc(OC)c4)c3)cs2)s1 (stereo not drawn) | 8% | 42% |  |
| COc1cccc(C(=O)Nc2cccc(-c3csc(-c4sc(NC(=O)NCc5ccccn5)nc4N)n3)c2)c1 | -5% | 103% |  |
| COc1cccc(C(=O)Nc2cccc(-c3csc(-c4sc(NC(=O)NCc5cccnc5)nc4N)n3)c2)c1 | 3% | 105% |  |
| COc1cccc(C(=O)Nc2cccc(-c3csc(-c4sc(NC(=O)NCc5ccncc5)nc4N)n3)c2)c1 | -2% | 116% |  |
| COc1cccc(C(=O)Nc2cccc(-c3csc(-c4sc(NC(=O)NCC(O)CO)nc4N)n3)c2)c1 (stereo not drawn) | -3% | 42% |  |
| COc1cccc(C(=O)Nc2cccc(-c3csc(-c4sc(NC(=O)NC(C)CO)nc4N)n3)c2)c1 (stereo not drawn) | -3% | 42% |  |
| COc1cccc(C(=O)Nc2cccc(-c3csc(-c4sc(NC(=O)NCCCN(C)C)nc4N)n3)c2)c1 | -8% | 15% |  |
| COc1cccc(C(=O)Nc2cccc(-c3csc(-c4sc(NC(=O)NCCN(C)C)nc4N)n3)c2)c1 | -11% | 46% |  |
| COc1cccc(C(=O)Nc2cccc(-c3csc(-c4sc(NC(=O)NCC(C)(C)N)nc4N)n3)c2)c1 | 14% | 3% |  |
| CCN(CC)CCNC(=O)Nc1nc(N)c(-c2nc(-c3cc(NC(=O)c4cccc(OC)c4)c(F)cc3F)cs2)s1 |  |  | 40% |
| COc1cccc(C(=O)Nc2cc(-c3csc(-c4sc(NC(=O)NC5CC(C)(C)NC(C)(C)C5)nc4N)n3)c(F)cc2F)c1 |  |  | 89% |
| CCN(CC)CCCNC(=O)Nc1nc(N)c(-c2nc(-c3cc(NC(=O)c4cccc(OC)c4)c(F)cc3F)cs2)s1 |  |  | 89% |
| COc1cccc(C(=O)Nc2cc(-c3csc(-c4sc(NC(=O)NCC(N)=O)nc4N)n3)c(F)cc2F)c1 |  |  | 48% |

| SMILES | inhibition at 0.01 µM | inhibition at 0.05 µM [1] | inhibition at 0.05 µM [2] |
| --- | --- | --- | --- |
| COc1cccc(C(=O)Nc2cc(-c3csc(-c4sc(NC(=O)NCC(C)C)nc4N)n3)c(F)cc2F)c1 |  |  | 38% |
| COc1cccc(C(=O)Nc2cc(-c3csc(-c4sc(NC(=O)NCCc5cccnc5)nc4N)n3)c(F)cc2F)c1 |  |  | 100% |
| COc1cccc(C(=O)Nc2cc(-c3csc(-c4sc(NC(=O)NCCO)nc4N)n3)c(F)cc2F)c1 |  |  | 110% |
| COc1cccc(C(=O)Nc2cc(-c3csc(-c4sc(NC(=O)N[C@@H](CC(N)=O)C(N)=O)nc4N)n3)c(F)cc2F)c1 |  |  | 32% |
| CNC(=O)CNC(=O)Nc1nc(N)c(-c2nc(-c3cc(NC(=O)c4cccc(OC)c4)c(F)cc3F)cs2)s1 |  |  | 73% |
| COc1cccc(C(=O)Nc2cc(-c3csc(-c4sc(NC(=O)NCCc5cncn5C)nc4N)n3)c(F)cc2F)c1 |  |  | 58% |
| CCN1CCCC1CNC(=O)Nc1nc(N)c(-c2nc(-c3cc(NC(=O)c4cccc(OC)c4)c(F)cc3F)cs2)s1 (stereo not drawn) |  |  | 85% |
| COc1cccc(C(=O)Nc2cc(-c3csc(-c4sc(NC(=O)NC(C)CN(C)C)nc4N)n3)c(F)cc2F)c1 (stereo not drawn) |  |  | 64% |
| COc1cccc(C(=O)Nc2cc(-c3csc(-c4sc(NC(=O)NCCCN5CCCC5)nc4N)n3)c(F)cc2F)c1 |  |  | 92% |
| COc1cccc(C(=O)Nc2cc(-c3csc(-c4sc(NC(=O)NCCN(C(C)C)C(C)C)nc4N)n3)c(F)cc2F)c1 |  |  | 82% |
| COc1cccc(C(=O)Nc2cc(-c3csc(-c4sc(NC(=O)NCCCN5CCN(C)CC5)nc4N)n3)c(F)cc2F)c1 |  |  | 95% |
| COc1cccc(C(=O)Nc2cc(-c3csc(-c4sc(NC(=O)NCCN5CCNC5=O)nc4N)n3)c(F)cc2F)c1 |  |  | 78% |
| COc1cccc(C(=O)Nc2cc(-c3csc(-c4sc(NC(=O)NCCC(N)=O)nc4N)n3)c(F)cc2F)c1 |  |  | 48% |
| CCN(CC)CCCC(C)NC(=O)Nc1nc(N)c(-c2nc(-c3cc(NC(=O)c4cccc(OC)c4)c(F)cc3F)cs2)s1 (stereo not drawn) |  |  | 84% |
| COc1cccc(C(=O)Nc2cc(-c3csc(-c4sc(NC(=O)NCCCCN(C)C)nc4N)n3)c(F)cc2F)c1 |  |  | 30% |
| COc1cccc(C(=O)Nc2cc(-c3csc(-c4sc(NC(=O)NCCCCCCN(C)C)nc4N)n3)c(F)cc2F)c1 |  |  | 83% |
| COc1cccc(C(=O)Nc2cc(-c3csc(-c4sc(NC(=O)NCC(C)N(C)C)nc4N)n3)c(F)cc2F)c1 (stereo not drawn) |  |  | 22% |
| COc1cccc(C(=O)Nc2cc(-c3csc(-c4sc(NC(=O)NCCCN5CCCCCC5)nc4N)n3)c(F)cc2F)c1 |  |  | 86% |
